Laboratory results: ChEMBL document CHEMBL1201862, “PubChem BioAssay data set” (2004)
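All cell lines were grown in 96-well plates and treated with compound for 48 hours. At the GI50, growth is halved.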 Activity calls are given as the source filed them. Rule as the data show it: active = GI50 up to about 1.1 µM and inactive = higher.

Assays:
Experiment in all cases: inhibition of tumour cell growth, NCI panel, 48 h
[1] = tested on: MOLT-4
[2] = tested on: SK-OV-3
[3] = tested on: UACC-257
[4] = tested on: NCI-H460
[5] = tested on: EKVX
[6] = tested on: M14
[7] = tested on: COLO 205
[8] = tested on: DMS-114
[9] = tested on: IGROV-1
[10] = tested on: A549
[11] = tested on: CAKI-1
[12] = tested on: A498
[13] = tested on: CCRF-CEM
[14] = tested on: SW-620
[15] = tested on: DLD-1

Measured: GI50

Cc1nc2c(s/c(=N\N)n2-c2ccccc2)c(=O)[nH]1
inactive: [1] > 100 µM | [2] > 100 µM | [3] > 100 µM | [4] > 100 µM | [5] > 100 µM | [6] > 100 µM | [7] > 100 µM | [8] > 100 µM | [9] > 100 µM | [10] > 100 µM | [11] > 100 µM | [12] > 100 µM | [13] > 100 µM | [14] > 100 µM | [15] > 100 µM

O=c1c2ccccc2nc(-c2ccccc2)n1NC(=S)Nc1ccccc1
inactive: [1] > 100 µM | [2] > 100 µM | [3] > 100 µM | [4] > 100 µM | [6] > 100 µM | [7] > 100 µM | [8] 14.3 µM | [9] > 100 µM | [10] > 100 µM | [11] > 100 µM | [12] > 100 µM | [13] > 100 µM | [14] > 100 µM | [15] > 100 µM

CC1SC2=NC3=C(c4ccccc4C3=O)C(c3ccc(F)cc3)N2C1=O (centres undefined)
inactive: [1] > 100 µM | [2] > 100 µM | [3] > 100 µM | [4] > 100 µM | [5] > 100 µM | [6] > 100 µM | [7] > 100 µM | [8] 95.7 µM | [9] > 100 µM | [10] > 100 µM | [11] > 100 µM | [12] > 100 µM | [13] > 100 µM | [14] > 100 µM | [15] > 100 µM

CC1=NNC(=O)C2CCC(=O)N12 (centres undefined)
inactive: [1] > 100 µM | [2] > 100 µM | [3] > 100 µM | [4] > 100 µM | [5] > 100 µM | [6] > 100 µM | [7] > 100 µM | [8] > 100 µM | [9] > 100 µM | [10] > 100 µM | [11] > 100 µM | [12] > 100 µM | [13] > 100 µM | [14] > 100 µM | [15] > 100 µM

CC(C)(C)Sc1nnc(SC(C)(C)C)c2c(SC(C)(C)C)nnc(O)c12
inactive: [1] 3.37 µM | [2] 17.9 µM | [3] 13.6 µM | [4] 6.25 µM | [5] 12.1 µM | [6] 14.8 µM | [7] 12.4 µM | [8] 4.31 µM | [9] 8.51 µM | [10] 4.59 µM | [11] 3.58 µM | [12] 14 µM | [13] 7.5 µM | [14] 6.87 µM | [15] 10.9 µM
